Assay results as given in patent US6355658B1, “Coumarin derivatives, methods of preparation and application as medicines” (Centre National de la Recherche Scientifique, priority 1997, dated 2002).
Where two headings read alike, the source gives them in different places.

Experiments:
human leukocyte elastase = target: T1, human leukocyte elastase (Homo sapiens, UniProt P08246); test: Inactivation kinetics of human leukocyte elastase (chromogenic substrate MeOSuc-Ala2-Pro-Val-pNA); assay type: biochemical; conditions: 25° C., pH 8.0; for kinact/KI: inactivation phase of transient inactivation, read-out: Ki/KI or kobs/[I], LHE; for Ki/KI or kobs/[I], LHE: inactivation phase
T1 sequence (P08246 30-247 limits assumed): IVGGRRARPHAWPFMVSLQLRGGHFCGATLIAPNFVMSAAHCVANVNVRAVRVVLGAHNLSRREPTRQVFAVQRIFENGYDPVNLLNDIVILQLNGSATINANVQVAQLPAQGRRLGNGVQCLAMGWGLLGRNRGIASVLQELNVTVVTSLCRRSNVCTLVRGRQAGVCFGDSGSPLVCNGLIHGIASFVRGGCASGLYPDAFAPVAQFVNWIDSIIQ
Protocol: (§1) The inactivating or inhibitory properties of the coumarin derivatives were tested with respect to a certain number of enzymes: human leukocyte elastase, bovine α-chymotrypsin, human thrombin and bovine trypsin. The kinetic measurements were taken at 25° C. in the following buffers: 0.1 M Hepes, 0.5 M NaCl, 0.01% Tween 80, pH 8.0 (human leukocyte elastase); 0.025 M NaH2PO4, 0.05 M KCl, pH 7.5 (α-chymotrypsin); 0.01 M Tris, 0.01 M Hepes, 0.1 M NaCl, 0.1% PEG-6000, pH 7.5 (human thrombin); 0.1 M Tris, 0.01 M CaCl2, pH 7.5 (bovine trypsin). The chromogenic substrates used to determine the activity of the enzymes are: MeOSuc-Ala2-Pro-Val-pNA (human leukocyte elastase); Suc-Ala2-Pro-Phe-pNA (α-chymotrypsin); H-D-Phe-Pip-Arg-pNA (human thrombin); N-benzoyl-Arg-pNA (bovine trypsin) (pNA: para-nitroaniline).
(§2) The interaction of a suicide substrate with a serine protease corresponds to the minimum reaction scheme described in equation 1 in which E represents the enzyme, I represents the inhibitor, E-I represents the acyl-enzyme and E-I′ represents the inactivated enzyme [Silverman R. B., 1988, “Mechanism-based enzyme inactivation: chemistry and enzymology”, volume 1 CRC Press, Boca Raton, Fla.]: [drawing 76]
(§3) When k4 is small compared to k3, equation 1 can be simplified (equation 2, [Daniels et al., 1983, J. Biol. Chem., 258: 15046-15053]): [drawing 77]
(§4) Considering the first instants of the reaction, the system reduces to a simplified equation of the form of equation 2.
(§5) The kinetic constants characterizing the inactivation of the enzymes with the coumarin derivatives were determined using either the conventional sampling method (or batchwise method) or a method placing the inhibitor and the substrate in competition (or continuous method); these methods are described by Pochet et al. [Pochet et al., 1996, J. Med. Chem., 39: 2579-2585].
(§6) The inactivation of serine proteaaes with the coumarin derivatives is thus characterized by the following constants (see Eq. 2):
(§7) KI: apparent dissociation constant of an enzyme-inhibitor complex located upstream of ki
(§8) ki: first-order rate constant for inactivation at infinite inhibitor concentration
(§9) ki/KI: index of the overall inactivating efficacy of the inhibitor.

human thrombin = target: T2, human thrombin (Homo sapiens, UniProt P00734); test: Inactivation kinetics of human thrombin (chromogenic substrate H-D-Phe-Pip-Arg-pNA); assay type: biochemical; conditions: 25° C., pH 7.5, N.I. = non-inactivator; for kinact/KI: read-out: Ki/KI or kobs/[I], Thrombin
T2 construct: human thrombin
Protocol: as §1, §2, §3, §4, §5, §6, §7, §8, §9

bovine α-chymotrypsin = target: T3, bovine α-chymotrypsin (Bos taurus, UniProt P00766); test: Inactivation kinetics of bovine α-chymotrypsin (chromogenic substrate Suc-Ala2-Pro-Phe-pNA); assay type: biochemical; conditions: 25° C., pH 7.5, N.I. = non-inactivator; for kinact/KI: TABLE 1, 2-pyridyl esters, read-out: Ki/KI or kobs/[I], α-CT
T3 construct: bovine α-chymotrypsin
Protocol: as §1, §2, §3, §4, §5, §6, §7, §8, §9

bovine trypsin = target: T4, bovine trypsin (Bos taurus, UniProt P00760); test: Inactivation kinetics of bovine trypsin (chromogenic substrate N-benzoyl-Arg-pNA); assay type: biochemical; conditions: 25° C., pH 7.5, N.I. = non-inactivator
T4 sequence (P00760 24-246): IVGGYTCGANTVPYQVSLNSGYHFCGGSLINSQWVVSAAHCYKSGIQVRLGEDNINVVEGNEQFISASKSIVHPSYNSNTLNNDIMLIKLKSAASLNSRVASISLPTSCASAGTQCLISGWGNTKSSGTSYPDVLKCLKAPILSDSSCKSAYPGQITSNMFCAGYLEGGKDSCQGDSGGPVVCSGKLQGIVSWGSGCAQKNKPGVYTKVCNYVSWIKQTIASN
Protocol: as §1, §2, §3, §4, §5, §6, §7, §8, §9

[1] = TABLE 1, 2-pyridyl esters, inactivation phase
[2] = TABLE 3, no chloromethyl in position 6

Compound	kinact/KI (human leukocyte elastase; TABLE 1, 2-pyridyl esters) [M⁻¹ s⁻¹]	Ki/KI or kobs/[I], LHE (human leukocyte elastase; TABLE 1) [M⁻¹ s⁻¹]	melting point [°C]	kinact/KI (human thrombin; [1]) [M⁻¹ s⁻¹]	Ki/KI or kobs/[I], Thrombin (human thrombin; TABLE 1, inactivation phase)	kinact/KI (bovine α-chymotrypsin) [M⁻¹ s⁻¹]	Ki/KI or kobs/[I], Trypsin (bovine trypsin; TABLE 1, 2-pyridyl esters)	Ki/KI or kobs/[I], Trypsin (bovine trypsin; TABLE 1)	Ki/KI or kobs/[I], Thrombin (human thrombin; [1])	kinact/KI (human leukocyte elastase; [2]) [M⁻¹ s⁻¹]	Ki/KI or kobs/[I], LHE (human leukocyte elastase; TABLE 3) [M⁻¹ s⁻¹]	Ki/KI or kobs/[I], Thrombin (human thrombin; TABLE 3)	Ki/KI or kobs/[I], Thrombin (human thrombin; second table headed TABLE 3)	Ki/KI or kobs/[I], α-CT (bovine α-chymotrypsin; [2])	Ki/KI or kobs/[I], α-CT (bovine α-chymotrypsin; second table headed TABLE 3)	Ki/KI or kobs/[I], Trypsin (bovine trypsin; TABLE 3)	Ki/KI or kobs/[I], Trypsin (bovine trypsin; second table headed TABLE 3)
O=C(Oc1ccccn1)c1cc2cc(CCl)ccc2oc1=O [Ic′″9, 2-pyridyl 6-chloromethyl-2-oxo-2H-1-benzopyran-3-carboxylate]	420	420	125 to 129	~240	~240 M⁻¹ s⁻¹	1670	N.I.^a — — N.I. N.I.	N.I.^a — — N.I. N.I.	–	–	–	–	–	–	–	–	–
Cc1cccc(OC(=O)c2cc3cc(CCl)ccc3oc2=O)n1 [Ic′″10, 6-methyl-2-pyridyl 6-chloromethyl-2-oxo-2H-1-benzopyran-3-carboxylate]	200	200	160 to 162	–	N.I.	3300	N.I.^a — — N.I. N.I.	N.I.^a — — N.I. N.I.	N.I.	–	–	–	–	–	–	–	–
Cc1ccnc(OC(=O)c2cc3cc(CCl)ccc3oc2=O)c1 [Ic′″11, 4-methyl-2-pyridyl 6-chloromethyl-2-oxo-2H-1-benzopyran-3-carboxylate]	300	300	152 to 154	3900	3900 M⁻¹ s⁻¹	5950	N.I.^a — — N.I. N.I.	N.I.^a — — N.I. N.I.	–	–	–	–	–	–	–	–	–
CC(=O)OCc1ccc2oc(=O)c(C(=O)Oc3cncc(Cl)c3)cc2c1 [Id3, 5-chloro-3-pyridyl 6-acetoxymethyl-2-oxo-2H-1-benzopyran-3-carboxylate]	–	–	153 to 155	–	–	–	–	–	–	107000	107000	N.I. N.I. N.I. N.I. N.I. N.I. N.I. N.I. —	N.I. N.I. N.I. N.I. N.I. N.I. N.I. N.I. —	N.I.^a N.I. N.I. N.I. N.I. N.I. N.I. N.I.	N.I.^a N.I. N.I. N.I. N.I. N.I. N.I. N.I.	N.I. N.I. N.I. N.I. N.I. N.I. N.I. — —	N.I. N.I. N.I. N.I. N.I. N.I. N.I. — —
CC(C)C(=O)OCc1ccc2oc(=O)c(C(=O)Oc3cncc(Cl)c3)cc2c1 [Id9, 5-chloro-3-pyridyl 6-dimethylacetoxymethyl-2-oxo-2H-1-benzopyran-3-carboxylate]	–	–	162 to 164	–	–	–	–	–	–	45000	45000	N.I. N.I. N.I. N.I. N.I. N.I. N.I. N.I. —	N.I. N.I. N.I. N.I. N.I. N.I. N.I. N.I. —	N.I.^a N.I. N.I. N.I. N.I. N.I. N.I. N.I.	N.I.^a N.I. N.I. N.I. N.I. N.I. N.I. N.I.	N.I. N.I. N.I. N.I. N.I. N.I. N.I. — —	N.I. N.I. N.I. N.I. N.I. N.I. N.I. — —

Continued, in another order:

kinact/KI (human leukocyte elastase; TABLE 1, 2-pyridyl esters) [M⁻¹ s⁻¹]	Ki/KI or kobs/[I], LHE (human leukocyte elastase; TABLE 1) [M⁻¹ s⁻¹]	melting point [°C]	kinact/KI (human thrombin; [1]) [M⁻¹ s⁻¹]	Ki/KI or kobs/[I], Thrombin (human thrombin; TABLE 1, inactivation phase)	kinact/KI (bovine α-chymotrypsin) [M⁻¹ s⁻¹]	Ki/KI or kobs/[I], Trypsin (bovine trypsin; TABLE 1, 2-pyridyl esters)	Ki/KI or kobs/[I], Trypsin (bovine trypsin; TABLE 1)	Ki/KI or kobs/[I], Thrombin (human thrombin; [1])	Compound	kinact/KI (human leukocyte elastase; [2]) [M⁻¹ s⁻¹]	Ki/KI or kobs/[I], LHE (human leukocyte elastase; TABLE 3) [M⁻¹ s⁻¹]	Ki/KI or kobs/[I], Thrombin (human thrombin; TABLE 3)	Ki/KI or kobs/[I], Thrombin (human thrombin; second table headed TABLE 3)	Ki/KI or kobs/[I], α-CT (bovine α-chymotrypsin; [2])	Ki/KI or kobs/[I], α-CT (bovine α-chymotrypsin; second table headed TABLE 3)	Ki/KI or kobs/[I], Trypsin (bovine trypsin; TABLE 3)	Ki/KI or kobs/[I], Trypsin (bovine trypsin; second table headed TABLE 3)
–	–	156 to 158	–	–	–	–	–	–	CCC(=O)OCc1ccc2oc(=O)c(C(=O)Oc3cncc(Cl)c3)cc2c1 [Id6, 5-chloro-3-pyridyl 6-propionyloxymethyl-2-oxo-2H-1-benzopyran-3-carboxylate]	62000	62000	N.I. N.I. N.I. N.I. N.I. N.I. N.I. N.I. —	N.I. N.I. N.I. N.I. N.I. N.I. N.I. N.I. —	N.I.^a N.I. N.I. N.I. N.I. N.I. N.I. N.I.	N.I.^a N.I. N.I. N.I. N.I. N.I. N.I. N.I.	N.I. N.I. N.I. N.I. N.I. N.I. N.I. — —	N.I. N.I. N.I. N.I. N.I. N.I. N.I. — —
–	–	146 to 148	–	–	–	–	–	–	CCCC(=O)OCc1ccc2oc(=O)c(C(=O)Oc3cncc(Cl)c3)cc2c1 [Id10, 5-chloro-3-pyridyl 6-butyryloxymethyl-2-oxo-2H-1-benzopyran-3-carboxylate]	67600	67600	N.I. N.I. N.I. N.I. N.I. N.I. N.I. N.I. —	N.I. N.I. N.I. N.I. N.I. N.I. N.I. N.I. —	N.I.^a N.I. N.I. N.I. N.I. N.I. N.I. N.I.	N.I.^a N.I. N.I. N.I. N.I. N.I. N.I. N.I.	N.I. N.I. N.I. N.I. N.I. N.I. N.I. — —	N.I. N.I. N.I. N.I. N.I. N.I. N.I. — —
